Measurements reported in US6106866A, “In vivo agents comprising cationic drugs, peptides and metal chelators with acidic saccharides and glycosaminoglycans, giving improved site-selective localization, uptake mechanism, sensitivity and kinetic-spatial profiles, including tumor sites” (Access Pharmaceuticals, Inc., priority 1995, dated 2000).
Entries after “also recorded” stand apart in the source; their conditions may differ.

Tests used:
[1] = tested on: adriamycin/doxorubicin-resistant MCF-7 cell line; experiment: Clonigenic tumor-cell killing assay, doxorubicin-resistant MCF-7 (14C-glucose, Bactec, day 9); format: cell-based, human
Description: (§1) The paired-ion doxorubicin:dermatan sulfate (essentially purified dermatan sulfate, 435 Type, Opocrin) of Example 28 (=doxorubicin:DS), is compared to standard doxorubicin liquid (Adria Laboratories), for tumor-cell killing potency in a clonigenic assay, using the following human breast cancer cell lines: parent MCF-7 cell line and adriamycin/doxorubicin-resistant MCF-7 cell line. For each group, five serial dilutions of each formulation were mixed on day 0, with an appropriate number of cells, growth medium and ^14 C-labelled glucose, the mixture then injected into serum vials pre-gassed with 5% CO2, and the vials incubated at 37° C. (with cells continuously exposed to drug). […] Results are shown in Table 5 for the day of peak counts (day 9): […]

[2] = tested on: AT-1 prostate carcinomas; experiment: Acute in vivo tumor localization and tumor-cell internalization by fluorescence microscopy; set-up: species or system Copenhagen rats
Protocol: FIG. 21A. Frozen 8-micron thick section of prostate adenocarcinoma (outer 2/3 of tumor of ca. 4 cm diameter), excised from its host rat (Copenhagen strain, syngeneic) 3 hours after intravenous injection of 5 mg/Kg doxorubicin:DS (doxorubicin in association with essentially purified dermatan sulfate, 435 Type, Opocrin) at a weight ratio of 60:40 (doxorubicin to dermatan sulfate), and fluorescence microscopy performed using a rhodamine-type filter to elicit direct fluorescence of the doxorubicin drug substance (see also Example 29). […] This is indicative of high tumor-cell internalization of the doxorubicin drug substance.
The paired-ion doxorubicin:dermatan sulfate (essentially purified dermatan sulfate, 435 Type, Opocrin) of Example 28 (=doxorubicin:DS) and standard doxorubicin liquid (Adria Laboratories) are injected at 5 mg/kg of doxorubicin i.v., into Copenhagen rats with AT-1 prostate carcinomas grown in a skin pouch (to mimic growth at deep organ sites). The rats are sacrificed at 3 hours after injection, the tumors and major organs removed, the cut tumors & organ pieces placed in OCT polymer and frozen at […], and cryostat sections cut at 8 um and coverslipped. Fluorescence microscopy is performed by exciting the sections using a rhodamine-type bandpass filter (at ca. 485 nm--in order to selectively excite doxorubicin) and assessing direct doxorubicin fluorescence (at an emission wavelength greater than 530 nm) to determine the following: […]

[3] = Acute in vivo toxicity of doxorubicin:dermatan sulfate vs standard doxorubicin (day of death); set-up: species or system male Balb/c mice; details: 22.5 mg/Kg i.v.
Description: The days of death are: doxorubicin:DS: modal day=6, mean=5.5±0.9 SE; standard doxorubicin: modal day=day 5, mean=4.8±0.5SE.

[4] = tested on: parent MCF-7 cell line; experiment: Clonigenic tumor-cell killing assay, parent MCF-7 (14C-glucose, Bactec, day 9); format: cell-based; details: Homo sapiens, MCF7, 216 h
Description: as §1

[5] = mouse, in vivo; cited from earlier work

COc1cccc2c1C(=O)c1c(O)c3c(c(O)c1C2=O)C[C@@](O)(C(=O)CO)C[C@@H]3O[C@H]1C[C@H](N)[C@H](O)[C@H](C)O1 [Standard doxorubicin]
ability to overcome resistance [1]: unable to do so
IC50 ([1]; Homo sapiens, MCF7, 216 h, day 9): 22.3 µM
IC90 ([1]; day 9): not achieved
direct drug fluorescence in tumor cells ([2]; 5 mg/Kg i.v., 3 hours): markedly lower fluorescence
fluorescence of endothelium / microvessels ([2]; 5 mg/Kg i.v., 3 hours): general lack of fluorescence in and around the large tumor microvessel; also recorded: general lack of fluorescence in and around tumor microvessel (image center) and in tumor-cell nuclei
fluorescence of tumor-cell nuclei ([2]; 5 mg/Kg i.v., 3 hours): no identifiable fluorescence in the tumor-cell nuclei
Fluorescence near capillaries (scale of 0 to 4+) ([2]; 2/3 of regions): 0
Fluorescence away from capillaries (scale of 0 to 4+) ([2]; Adriamycin PFS: most regions, doxorubicin:DS: ca. 8/10 of regions): 0
Endothelial fluorescence (scale of 0 to 4+) ([2]; rat, in vivo): 0
Endothelial nuclear fluorescence (scale of 0 to 4+) ([2]; rat, in vivo): 0
modal day of death [3]: 5 days
mean day of death ([3]; ± SE): 4.8 ± 0.5 days
IC50 [4]: 0.02 µM
IC90 [4]: 0.06 µM
reported LD90 in mice [5]: 22.5 mg/kg
